Laboratory results taken from patent US8324176B2, “Pyrazole derivatives, medicinal composition containing the same, medicinal use thereof, and intermediate for production thereof” (Kissei Pharmaceutical Co., Ltd., priority 2002, dated 2012).

molecular target: T1, human SGLT1 (Homo sapiens, UniProt P13866); experiment: Assay for inhibitory effects on human SGLT1 activity (uptake of methyl-α-D-glucopyranoside in CS1-5-11D cells); type: cell-based; details: CHO-K1 cells stably expressing human SGLT1 (CS1-5-11D); 1 mM α-MG uptake, 37° C., 1 hour
T1 construct: expressed in transfected cells
T1 sequence (P13866 1-664): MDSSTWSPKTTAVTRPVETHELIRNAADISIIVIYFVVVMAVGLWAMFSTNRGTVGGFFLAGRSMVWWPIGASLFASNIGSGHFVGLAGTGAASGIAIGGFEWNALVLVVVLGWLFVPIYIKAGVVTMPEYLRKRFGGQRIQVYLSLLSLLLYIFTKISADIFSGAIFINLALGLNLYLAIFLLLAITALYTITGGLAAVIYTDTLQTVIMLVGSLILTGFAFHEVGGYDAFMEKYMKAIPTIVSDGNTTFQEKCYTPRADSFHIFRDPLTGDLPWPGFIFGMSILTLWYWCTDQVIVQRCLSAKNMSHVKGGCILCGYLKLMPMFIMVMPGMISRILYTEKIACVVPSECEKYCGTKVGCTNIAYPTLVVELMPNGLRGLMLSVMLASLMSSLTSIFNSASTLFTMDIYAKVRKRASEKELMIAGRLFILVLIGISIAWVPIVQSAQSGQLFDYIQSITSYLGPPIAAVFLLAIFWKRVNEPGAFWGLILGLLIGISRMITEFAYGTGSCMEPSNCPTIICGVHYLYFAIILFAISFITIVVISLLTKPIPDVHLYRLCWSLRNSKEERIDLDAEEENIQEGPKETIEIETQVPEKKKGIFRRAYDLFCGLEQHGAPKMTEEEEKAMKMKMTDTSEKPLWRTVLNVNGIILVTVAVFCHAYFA
Experimental: Assay for Inhibitory Effects on Human SGLT1 Activity
1) Cloning and Construction of the Vector Expressing Human SGLT1
The cDNA library was prepared for PCR amplification by reverse transcription from total RNA deprived from human small intestine (Ori gene) using oligo-dT as a primer.
2) Establishment of Cell Line Stably Expressing Human SGLT1
The expression vector of human SGLT1 was digested by Sca I into a linear DNA. The linear DNA was transfected into CHO-K1 cells by means of lipofection (Effectene Transfection Reagent: QIAGEN). Neomycin resistant cell lines were selected by culture in the medium containing G418 (1 mg/mL, LIFE TECHNOLOGIES), and then the activity against the uptake of methyl-α-D-glucopyranoside was measured by the method described below. […] CS1-5-11D cells were cultured in the presence of G418 at 200 μg/mL.
3) Measurement of the Inhibitory Activity Against the Uptake of Methyl-α-D-glucopyranoside (α-MG)
CS1-5-11D cells were seeded into a 96-well culture plate at a density of 3×10^4 cells/well and cultured for 2 days, and were used in the uptake assay. A mixture of non-labeled (Sigma) and ^14C-labeled α-MG (Amersham Pharmcia Biotec) was added to the uptake buffer (pH 7.4: containing 140 mM sodium chloride, 2 mM potassium chloride, 1 mM calcium chloride, 1 mM magnesium chloride, 10 mM 2-[4-(2-hydroxyethyl)-1-piperazinyl]ethane sulfonic acid, and 5 mM tris(hydroxymethyl)aminomethane) at the final concentration of 1 mM. A test compound was dissolved in dimethyl sulfoxide, and then appropriately diluted with distilled water. The test compound solution was added to the uptake buffer containing 1 mM α-MG, and designated as a measurement buffer. For the control group, the measurement buffer without any test compound was prepared. For measuring the basal uptake, a basal uptake measurement buffer which contains 140 mM chorine chloride instead of sodium chloride was prepared. After removing the culture medium of CS1-5-11D cells, 180 μL of the pre-treatment buffer (the basal uptake buffer without α-MG) was added to each well and incubated at 37° C. for 10 minutes. After repeating the same treatment, the pre-treatment buffer was removed. To each well was added 75 μL of the measurement buffer or the basal uptake buffer was added and incubated at 37° C. for 1 hour. After removing the measurement buffer, cells were washed twice with 180 μL per well of the washing buffer (the basal uptake buffer containing 10 mM non-labeled α-MG). The cells were solubilized by 75 μL per well of 0.2 mol/L sodium hydroxide. The cell lysates were transferred into PicoPlates (Packard), and then added 150 μL of MicroScint-40 (Packard) and mixed. Radioactivity was measured by means of micro-scintillation counter TopCount (Packard). One hundred was set to the difference between the uptake in the control group and the basal uptake, and the uptake of methyl α-D-glucopyranoside a teach drug concentration were calculated.

| IC50 | SMILES |
| --- | --- |
| 0.042 µM | Cc1cc(OCCCN)ccc1Cc1c(O[C@@H]2O[C@H](CO)[C@@H](O)[C@H](O)[C@H]2O)n[nH]c1C(C)C [Example 9, 4-{[4-(3-Aminopropoxy)-2-methylphenyl]methyl}-3-(β-D-glucopyranosyloxy)-5-isopropyl-1H-pyrazole] |
| 0.233 µM | CC(C)c1[nH]nc(O[C@@H]2O[C@H](CO)[C@@H](O)[C@H](O)[C@H]2O)c1Cc1ccc(OCCCNC(=O)NC(CO)CO)cc1 [Example 22, 3-(β-D-Glucopyranosyloxy)-4-{[4-(3-{3-[2-hydroxy-1-(hydroxymethyl)ethyl]ureido}propoxy)phenyl]methyl}-5-isopropyl-1H-pyrazole] |
| 0.09 µM | Cc1cc(OCCCNC(=O)NC(C)(CO)CO)ccc1Cc1c(O[C@@H]2O[C@H](CO)[C@@H](O)[C@H](O)[C@H]2O)n[nH]c1C(C)C [Example 28, 3-(β-D-Glucopyranosyloxy)-4-{[4-(3-{3-[2-hydroxy-1-(hydroxymethyl)-1-(methyl)ethyl]ureido}propoxy)-2-methylphenyl]methyl}-5-isopropyl-1H-pyrazole] |
| 0.019 µM | Cc1cc(OCCCNC(=O)NC(C)(C)CO)ccc1Cc1c(O[C@@H]2O[C@H](CO)[C@@H](O)[C@H](O)[C@H]2O)n[nH]c1C(C)C [Example 29, 3-(β-D-Glucopyranosyloxy)-4-{[4-(3-(3-[2-hydroxy-1,1-di(methyl)ethyl]ureido)propoxy)-2-methylphenyl]methyl}-5-isopropyl-1H-pyrazole] |
| 0.257 µM | Cc1cc(OCCCNC(=O)NCCO)ccc1Cc1c(O[C@@H]2O[C@H](CO)[C@@H](O)[C@H](O)[C@H]2O)n[nH]c1C(C)C [Example 30, 3-(β-D-Glucopyranosyloxy)-4-[(4-(3-[3-(2-hydroxyethyl)ureido]propoxy)-2-methylphenyl)methyl]-5-isopropyl-1H-pyrazole] |
| 0.166 µM | Cc1cc(OCCNC(=O)NC(C)(C)C(N)=O)ccc1Cc1c(O[C@@H]2O[C@H](CO)[C@@H](O)[C@H](O)[C@H]2O)n[nH]c1C(C)C [Example 31, 4-{[4-(2-{3-[1-Carbamoyl-1-(methyl)ethyl]ureido}ethoxy)-2-methylphenyl]methyl}-3-(β-D-glucopyranosyloxy)-5-isopropyl-1H-pyrazole] |
| 0.113 µM | Cc1cc(OCCNC(=O)NC(C)(CO)CO)ccc1Cc1c(O[C@@H]2O[C@H](CO)[C@@H](O)[C@H](O)[C@H]2O)n[nH]c1C(C)C [Example 32, 3-(β-D-Glucopyranosyloxy)-4-{[4-(2-{3-[2-hydroxy-1-(hydroxymethyl)-1-(methyl)ethyl]ureido}ethoxy)-2-methylphenyl]methyl}-5-isopropyl-1H-pyrazole] |
| 0.065 µM | Cc1cc(OCCNC(=O)NC(C)(C)CO)ccc1Cc1c(O[C@@H]2O[C@H](CO)[C@@H](O)[C@H](O)[C@H]2O)n[nH]c1C(C)C [Example 33, 3-(β-D-Glucopyranosyloxy)-4-{[4-(2-{3-[2-hydroxy-1,1-di(methyl)ethyl]ureido}ethoxy)-2-methylphenyl]methyl}-5-isopropyl-1H-pyrazole] |
| 0.383 µM | CNC(=NC#N)NCCCOc1ccc(Cc2c(O[C@@H]3O[C@H](CO)[C@@H](O)[C@H](O)[C@H]3O)n[nH]c2C(C)C)cc1 [Example 36, 4-({4-[3-(2-Cyano-3-methylguanidino)propoxy]phenyl}methyl)-3-(β-D-glucopyranosyloxy)-5-isopropyl-1H-pyrazole] |
| 0.246 µM | CC(C)c1[nH]nc(O[C@@H]2O[C@H](CO)[C@@H](O)[C@H](O)[C@H]2O)c1Cc1ccc(OCCCNS(N)(=O)=O)cc1 [Example 38, 3-(β-D-Glucopyranosyloxy)-5-isopropyl-4-({4-[3-(sulfamoylamino)propoxy]phenyl}methyl)-1H-pyrazole] |
| 0.054 µM | CC(C)c1[nH]nc(O[C@@H]2O[C@H](CO)[C@@H](O)[C@H](O)[C@H]2O)c1Cc1ccc(OCCCNC(C)(C)C(N)=O)cc1 [Example 48, 4-[(4-{3-[1-Carbamoyl-1-(methyl)ethylamino]propoxy}phenyl)methyl]-3-(β-D-glucopyranosyloxy)-5-isopropyl-1H-pyrazole] |
| 0.148 µM | Cc1cc(OCCNCC(N)=O)ccc1Cc1c(O[C@@H]2O[C@H](CO)[C@@H](O)[C@H](O)[C@H]2O)n[nH]c1C(C)C [Example 49, 4-({4-[2-(Carbamoylmethylamino)ethoxy]-2-methylphenyl}methyl)-3-(1-D-glucopyranosyloxy)-5-isopropyl-1H-pyrazole] |
| 0.159 µM | Cc1cc(OCCNCCC(N)=O)ccc1Cc1c(O[C@@H]2O[C@H](CO)[C@@H](O)[C@H](O)[C@H]2O)n[nH]c1C(C)C [Example 50] |
| 0.022 µM | Cc1cc(OCCCNC(C)(C)C(N)=O)ccc1Cc1c(O[C@@H]2O[C@H](CO)[C@@H](O)[C@H](O)[C@H]2O)n[nH]c1C(C)C [Example 51, 4-[(4-{3-[1-Carbamoyl-1-(methyl)ethylamino]propoxy}-2-methylphenyl)methyl]-3-(β-D-glucopyranosyloxy)-5-isopropyl-1H-pyrazole] |
| 0.043 µM | Cc1cc(OCCCNC(C)(C)CO)ccc1Cc1c(O[C@@H]2O[C@H](CO)[C@@H](O)[C@H](O)[C@H]2O)n[nH]c1C(C)C [Example 57, 3-(β-D-Glucopyranosyloxy)-4-[(4-(3-[2-hydroxy-1,1-di(methyl)ethylamino]propoxy)-2-methylphenyl)methyl]-5-isopropyl-1H-pyrazole] |
| 0.1 µM | Cc1cc(OCCCNCCO)ccc1Cc1c(O[C@@H]2O[C@H](CO)[C@@H](O)[C@H](O)[C@H]2O)n[nH]c1C(C)C [Example 58, 3-(β-D-Glucopyranosyloxy)-4-({4-[3-(2-hydroxyethylamino)propoxy]-2-methylphenyl}methyl)-5-isopropyl-1H-pyrazole] |
| 0.199 µM | CC(C)c1[nH]nc(O[C@@H]2O[C@H](CO)[C@@H](O)[C@H](O)[C@H]2O)c1Cc1ccc(OCCCNC(C)(C)CO)cc1 [Example 61, 3-(β-D-Glucopyranosyloxy)-4-[(4-(3-[2-hydroxy-1,1-di(methyl)ethylamino]propoxy)phenyl)methyl]-5-isopropyl-1H-pyrazole] |
| 0.138 µM | Cc1cc(OCCNC(CO)CO)ccc1Cc1c(O[C@@H]2O[C@H](CO)[C@@H](O)[C@H](O)[C@H]2O)n[nH]c1C(C)C [Example 62, 3-(β-D-Glucopyranosyloxy)-4-[(4-{2-[2-hydroxy-1-(hydroxymethyl)ethylamino]ethoxy}-2-methylphenyl)methyl]-5-isopropyl-1H-pyrazole] |
| 0.322 µM | Cc1cc(OCCNCCO)ccc1Cc1c(O[C@@H]2O[C@H](CO)[C@@H](O)[C@H](O)[C@H]2O)n[nH]c1C(C)C [Example 63, 3-(β-D-Glucopyranosyloxy)-4-({4-[2-(2-hydroxyethylamino)ethoxy]-2-methylphenyl}methyl)-5-isopropyl-1H-pyrazole] |
